Laboratory results reported in patent publication US11174251B2, “Compositions and methods for inhibition of the JAK pathway” (Rigel Pharmaceuticals, Inc., priority 2010, dated 2021).
Where a name gives a salt, the structure may show the parent alone.

Biological target: T1, JAK3 (Homo sapiens, UniProt P52333)
T1 construct: The Ramos B-cell line was acquired from ATCC (ATCC Catalog No. CRL-1596); host or cells: Ramos B-cell line (human)
T1 sequence (P52333 1-1124): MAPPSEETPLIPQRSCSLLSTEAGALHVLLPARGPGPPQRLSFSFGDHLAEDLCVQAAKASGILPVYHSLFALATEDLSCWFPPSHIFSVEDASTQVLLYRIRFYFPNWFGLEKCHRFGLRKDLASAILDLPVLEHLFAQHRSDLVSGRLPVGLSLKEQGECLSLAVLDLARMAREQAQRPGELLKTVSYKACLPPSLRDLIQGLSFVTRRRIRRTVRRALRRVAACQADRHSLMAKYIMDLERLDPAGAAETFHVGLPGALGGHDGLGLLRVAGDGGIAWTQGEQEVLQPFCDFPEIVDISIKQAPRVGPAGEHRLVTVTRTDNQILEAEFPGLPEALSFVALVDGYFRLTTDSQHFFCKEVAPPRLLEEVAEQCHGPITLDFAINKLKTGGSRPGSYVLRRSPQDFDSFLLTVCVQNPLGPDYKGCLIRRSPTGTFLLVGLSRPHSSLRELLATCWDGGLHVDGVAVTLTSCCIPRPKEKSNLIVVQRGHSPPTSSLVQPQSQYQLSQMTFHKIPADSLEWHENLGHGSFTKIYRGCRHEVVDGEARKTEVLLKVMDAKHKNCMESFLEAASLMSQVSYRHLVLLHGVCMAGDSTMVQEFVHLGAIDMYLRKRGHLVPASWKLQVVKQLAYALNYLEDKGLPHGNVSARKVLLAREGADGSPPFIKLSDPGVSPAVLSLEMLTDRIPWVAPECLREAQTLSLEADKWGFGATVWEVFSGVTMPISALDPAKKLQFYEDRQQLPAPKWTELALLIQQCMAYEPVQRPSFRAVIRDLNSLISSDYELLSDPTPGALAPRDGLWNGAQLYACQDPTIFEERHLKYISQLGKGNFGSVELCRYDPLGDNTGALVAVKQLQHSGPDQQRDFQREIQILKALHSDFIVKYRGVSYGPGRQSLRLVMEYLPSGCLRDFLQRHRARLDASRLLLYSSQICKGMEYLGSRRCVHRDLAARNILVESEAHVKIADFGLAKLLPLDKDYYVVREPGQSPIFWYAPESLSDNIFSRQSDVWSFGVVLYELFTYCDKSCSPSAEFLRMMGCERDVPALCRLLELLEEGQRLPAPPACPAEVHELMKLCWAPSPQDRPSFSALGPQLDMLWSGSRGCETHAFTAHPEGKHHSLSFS
Experiment: Assay for CD23 expression on Ramos B-cells stimulated by IL-4 (Table IV: ability to inhibit JAK3 activity)
Assay type: cell-based
Conditions: tested under conditions described in Example 3 (so in the source)
Excerpt: One means of assaying for such inhibition is detection of the effect of the 2,4-pyrimidinediamine compounds on the upregulation of downstream gene products. In the Ramos/IL4 assay, B-cells are stimulated with the cytokine Interleukin-4 (IL-4) leading to the activation of the JAK/Stat pathway through phosphorylation of the JAK family kinases, JAK1 and JAK3, which in turn phosphorylate and activate the transcription factor Stat-6. […] To study the effect of inhibitors (for example, the 2,4-substituted pyrimindinediamine compounds described herein) on the JAK1 and JAK3 kinases, human Ramos B cells are stimulated with human IL-4. 20 to 24 hours post stimulation, cells are stained for upregulation of CD23 and analyzed using FACS.
B-cells stimulated with cytokine Interleukin-4 (IL-4) activate the JAK/Stat pathway through phosphorylation of the JAK family kinases, JAK-1 and JAK-3, which in turn phosphorylate and activate the transcription factor Stat-6. […] To study the effect of inhibitors on the JAK family kinases, human Ramos B cells were stimulated with human IL-4 and the surface expression of CD23 was measured.
The day before the experiment, Ramos B-cells were diluted to 3.5×10^5 cells/mL to ensure that they were in a logarithmic growth phase.
Cells were spun down and suspended in RPMI with 5% serum. 5×10^4 cells were used per point in a 96-well tissue culture plate. Cells were pre-incubated with compound or DMSO (Sigma-Aldrich, St. Louis, Mo., Cat No. D2650) vehicle control for 1 hour in a 37° C. incubator. Cells were then stimulated with IL-4 (Peprotech Inc., Rocky Hill, N.J., Cat No. 200-04) for a final concentration of 50 units/mL for 20-24 hours. […] Detection was performed using a BD LSR I System Flow Cytometer, purchased from Becton Dickinson Biosciences of San Jose, Calif.
The compound designations in Table IV are consistent with those of Tables I-II above.

SMILES | IC50 [µM]
COc1cc(Nc2ncc(Cl)c(Nc3ccc4oc(=O)[nH]c4c3)n2)ccc1C [Compound I-32, 5-(5-chloro-2-(3-methoxy-4-methylphenylamino)pyrimidin-4-ylamino)benzo[d]oxazol-2(3H)-one trifluoroacetate salt] | < 0.5
CC(C)c1ccc(Nc2ncc(F)c(Nc3ccc4oc(=O)[nH]c4c3)n2)cc1 [Compound I-200, 5-(2-(4-isopropylphenylamino)-5-fluoropyrimidin-4-ylamino)benzo[d]oxazol-2(3H)-one trifluoroacetate salt] | 0.5 to 5
COc1cc(Nc2ncc(C)c(Nc3ccc4oc(=O)[nH]c4c3)n2)cc(F)c1C [Compound I-120, 5-(2-(3-fluoro-5-methoxy-4-methylphenylamino)-5-methylpyrimidin-4-ylamino)benzo[d]oxazol-2(3H)-one trifluoroacetate salt] | < 0.5
Cc1cnc(Nc2cc(C)c(C(=O)OCc3ccccc3)c(C)c2)nc1Nc1ccc2oc(=O)[nH]c2c1 [Compound I-141, N2-(4-benzyloxycarbonyl-3,5-dimethyl)phenyl-5-methyl-N4-(2-oxo-2,3-dihydro-1,3-benzoxazol-5-yl)-2,4-pyrimidinediamine] | < 0.5
COc1cc(Nc2ncc(Cl)c(Nc3ccc4oc(=O)[nH]c4c3)n2)cc(C(F)(F)F)c1 [Compound I-12, 5-(5-chloro-2-(3-methoxy-5-(trifluoromethyl)phenylamino)pyrimidin-4-ylamino)benzo[d]oxazol-2(3H)-one] | < 0.5
CCN(CC)Cc1cnc(Nc2cc(C)c(C)c(C)c2)nc1Nc1ccc2oc(=O)[nH]c2c1 [Compound I-97, 5-(5-((diethylamino)methyl)-2-(3,4,5-trimethylphenylamino)pyrimidin-4-ylamino)benzo[d]oxazol-2(3H)-one ditrifluoroacetate salt] | 0.5 to 5
Cc1cnc(Nc2cc(C)c(C(=O)O)c(C)c2)nc1Nc1ccc2oc(=O)[nH]c2c1 [Compound I-140, N2-(4-carboxy-3,5-dimethyl)phenyl-5-methyl-N4-(2-oxo-2,3-dihydro-1,3-benzoxazol-5-yl)-2,4-pyrimidinediamine] | 0.5 to 5
Cc1cnc(Nc2ccc(Br)cc2F)nc1Nc1ccc2oc(=O)[nH]c2c1 [Compound I-28, 5-[2-(4-Bromo-2-fluoro-phenylamino)-5-methyl-pyrimidin-4-ylamino]-3H-benzooxazol-2-one] | < 0.5
CC(C)NC(=O)c1ccc(Nc2ncc(F)c(Nc3ccc4oc(=O)[nH]c4c3)n2)cc1 [Compound I-163, 4-(5-fluoro-4-(2-oxo-2,3-dihydrobenzo[d]oxazol-5-ylamino)pyrimidin-2-ylamino)-N-isopropylbenzamide formate salt] | < 0.5
Cc1ccc(Nc2ncc(Cl)c(Nc3ccc4oc(=O)[nH]c4c3)n2)cc1N(C)C [Compound I-33, 5-(5-chloro-2-(3-(dimethylamino)-4-methylphenylamino)pyrimidin-4-ylamino)benzo[d]oxazol-2(3H)-one] | < 0.5
O=C(NC1CC1)c1ccc(Nc2ncc(F)c(Nc3ccc4oc(=O)[nH]c4c3)n2)cc1 [Compound I-161, N-cyclopropyl-4-(5-fluoro-4-(2-oxo-2,3-dihydrobenzo[d]oxazol-5-ylamino)pyrimidin-2-ylamino)benzamide formate salt] | < 0.5
CCOc1cc(Nc2ncc(Cl)c(Nc3ccc4oc(=O)[nH]c4c3)n2)cc(C)c1C [Compound I-104, 5-(5-chloro-2-(3-ethoxy-4,5-dimethylphenylamino)pyrimidin-4-ylamino)benzo[d]oxazol-2(3H)-one ditrifluoroacetate salt] | < 0.5
COc1cc(Nc2ncc(F)c(Nc3cc(F)c4oc(=O)[nH]c4c3)n2)cc(C)c1C [Compound I-112, 7-fluoro-5-(5-fluoro-2-(3-methoxy-4,5-dimethylphenylamino)pyrimidin-4-ylamino)benzo[d]oxazol-2(3H)-one trifluoroacetate salt] | < 0.5
Cc1cc(Nc2ncc(CN3CCN(C)CC3)c(Nc3ccc4oc(=O)[nH]c4c3)n2)cc(C)c1C [Compound I-100, 5-(2-(3,4,5-trimethylphenylamino)-5-((4-methylpiperazin-1-yl)methyl)pyrimidin-4-ylamino)benzo[d]oxazol-2(3H)-one] | 0.5 to 5
COCCOc1c(C)ccc(Nc2nccc(Nc3ccc4oc(=O)[nH]c4c3)n2)c1F [Compound I-62, 5-(2-(2-fluoro-3-(2-methoxyethoxy)-4-methylphenylamino)pyrimidin-4-ylamino)benzo[d]oxazol-2(3H)-one] | 0.5 to 5
O=c1[nH]c2cc(Nc3nc(Nc4ccccc4)ncc3Cl)ccc2o1 [Compound I-4, 5-(5-chloro-2-(phenylamino)pyrimidin-4-ylamino)benzo[d]oxazol-2(3H)-one trifluoroacetate salt] | < 0.5
CCN(CC)Cc1cc(Nc2nc(Nc3cc(C)c(C)c(C)c3)ncc2C)cc2[nH]c(=O)oc12 [Compound I-90, 7-((diethylamino)methyl)-5-(2-(3,4,5-trimethylphenylamino)-5-methylpyrimidin-4-ylamino)benzo[d]oxazol-2(3H)-one ditrifluoroacetate salt] | 0.5 to 5
COC(=O)c1cnc(Nc2cc(C)c(F)c(C)c2)nc1Nc1ccc2oc(=O)[nH]c2c1 [Compound I-74, methyl 2-(4-fluoro-3,5-dimethylphenylamino)-4-(2-oxo-2,3-dihydrobenzo[d]oxazol-5-ylamino)pyrimidine-5-carboxylate trifluoroacetate salt] | 5 to 10
COc1cc(Nc2ncc(C)c(Nc3cc(C)c4oc(=O)[nH]c4c3)n2)cc(C)c1C [Compound I-109, 5-(2-(3-methoxy-4,5-dimethylphenylamino)-5-methylpyrimidin-4-ylamino)-7-methylbenzo[d]oxazol-2(3H)-one trifluoroacetate trifluoroacetate salt] | < 0.5
Cc1cc(Nc2ncc(CN3CCCC3)c(Nc3ccc4oc(=O)[nH]c4c3)n2)cc(C)c1C [Compound I-98, 5-(2-(3,4,5-trimethylphenylamino)-5-((pyrrolidin-1-yl)methyl)pyrimidin-4-ylamino)benzo[d]oxazol-2(3H)-one] | 5 to 10
COC(=O)c1cnc(Nc2ccc(F)c(OC)c2F)nc1Nc1ccc2oc(=O)[nH]c2c1 [Compound I-48, 2-(2,4-Difluoro-3-methoxy-phenylamino)-4-(2-oxo-2,3-dihydro-benzooxazol-5-ylamino)-pyrimidine-5-carboxylic acid methyl ester trifluoroacetate salt] | > 10
Cc1cnc(Nc2ccc(C)c3c2COC3=O)nc1Nc1ccc2oc(=O)[nH]c2c1 [II-12, 5-methyl-N4-(2-oxo-2,3-dihydro-1,3-benzoxazol-5-yl)-N2-(1-oxo-1,3-dihydro-7-methylisobenzofuran-4-yl)-2,4-pyrimidinediamine] | < 0.5
COc1cc(Nc2ncc(F)c(Nc3ccc4oc(=O)[nH]c4c3)n2)cc(C)c1F [Compound I-181, 5-(2-(4-fluoro-3-methoxy-5-methylphenylamino)-5-fluoropyrimidin-4-ylamino)benzo[d]oxazol-2(3H)-one trifluoroacetate salt] | < 0.5
